Reference: patent US6143774A, “Imidazole n-benzyldioxol derivatives, method for preparing same, resulting intermediates, pharmaceutical compositions and use of said derivatives as endothelin antagonists” (Hoechst Marion Roussel, priority 1995, dated 2000)
pIC50: −log10 of the molar value.

How the values were obtained:
Endothelin A receptor = target: T1, Endothelin A receptor (Rattus norvegicus, UniProt P26684); experiment: Study of the affinity for the endothelin A receptor (125I endothelin displacement, rat heart ventricle membranes); format: binding; conditions: rat heart (ventricles) membranes, 25° C., 60 minutes
T1 construct: A membrane preparation is prepared from the heart (ventricles) of a rat; from tissue; host or cells: rat heart ventricles (membrane preparation)
T1 sequence (P26684 21-426): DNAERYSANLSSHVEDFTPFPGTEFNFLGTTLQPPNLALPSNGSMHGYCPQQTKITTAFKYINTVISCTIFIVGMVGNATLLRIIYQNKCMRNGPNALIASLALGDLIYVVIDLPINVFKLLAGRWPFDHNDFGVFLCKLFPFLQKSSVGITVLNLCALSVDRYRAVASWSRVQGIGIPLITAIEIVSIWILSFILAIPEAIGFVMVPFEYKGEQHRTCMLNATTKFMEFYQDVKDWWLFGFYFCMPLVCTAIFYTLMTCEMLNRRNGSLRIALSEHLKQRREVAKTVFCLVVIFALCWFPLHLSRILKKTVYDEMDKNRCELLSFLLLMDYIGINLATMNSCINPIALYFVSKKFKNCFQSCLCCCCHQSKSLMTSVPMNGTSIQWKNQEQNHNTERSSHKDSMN
Description: 1) Study of the Affinity for the Endothelin a Receptor
A membrane preparation is prepared from the heart (ventricles) of a rat. The tissue is ground up in a POLYTRON in a 50 mM Tris buffer pH=7.4.
(§1) After 30 minutes at 25° C. (W.B.) the homogenate is centrifuged at 30,000 g for 15 minutes (2 centrifugations with intermediate take-up in the Tris buffer pH 7.4).
(§2) The pellets are suspended in an incubation buffer (25 mM Tris, 5 microg/ml pepstatin A, 3 microg/ml aprotinin, 0.1 mM PMSF, 3 mM EDTA, 1 mM EGTA pH 7.4).
(§3) 2 ml aliquoted fractions are distributed in hemolysis tubes and ^125 I endothelin (approx. 5,000 dpm/tube) and the product to be studied are added. (The product is first tested at 3×10 5M three times). When the tested product displaces more than 50% of the radioactivity specifically bound to the receptor, it is tested again according to a range of 7 concentrations in order to determine the concentration which inhibits by 50% the radioactivity specifically bound to the receptor. In this way the 50% inhibitory concentration is determined.
(§4) The non-specific bond is determined by the addition of endothelin at 10^-6 M (three times). After incubation at 25° C. for 60 minutes, replacing in a water bath at 0° C. for 5 minutes, filtration under reduced pressure and rinsing with Tris buffer pH 7.4, the radioactivity is counted in the presence of scintillating Triton.
(§5) The result is expressed directly as the 50% inhibitory concentration (IC50), that is to say as the concentration of product studied, expressed in nM, necessary to displace 50% of the specific radioactivity fixed to the receptor studied.

endothelin (ET1) [1] = experiment: Test for antagonistic activity of endothelin in the demedullated rat; format: in vivo, male Sprague Dawley rats
Description: 3) Test for Antagonistic Activity of Endothelin in the Demedullated Rat
Male Sprague Dawley rats (250 to 350 g) are anaesthetized (sodium pentobarbital 60 mg/kg injected by intraperitoneal route). The animal is placed under assisted respiration and a bilateral section of the vagus nerves is carried out. The rat is then demedullated.
The average arterial pressure is recorded with a heparin catheter (PE50) introduced into the carotid of the animal, and connected via a pressure sensor and an amplifier to a recorder (Gould, Pressure Processor). A catheter is introduced into the pudendal vein in order to allow injection of the molecules to be studied. After a stabilization period (about 15 minutes), the product or the solvent is injected 10 minutes before a range of increasing doses of endothelin which are injected every 2 minutes (0.1-0.3-1-3-10 μg/kg).
The anatagonistic activity of the products is estimated by the percentage inhibition in the increase in pressure induced by the endothelin at doses of 3 and 10 μg/kg.

endothelin (ET1) [2] = experiment: Protection against sudden death induced by IV injection of endothelin (ET1) in a female mouse; format: in vivo
Description: 5) Protection Against Sudden Death Induced by IV Injection of Endothelin (ET1) in a Female Mouse
A lethal dose of ET1 (10 nmole/kg IV) is injected into female mice. The solvent or the molecules to be studied are injected 10 minutes before (i.v. route) or 30 minutes before (oral route) the endothelin.
The protection is calculated in the form of ED50 (50% effective dose, or the dose capable of reducing the mortality by 50% relative to the control group).

Endothelin B receptor = target: T2, Endothelin B receptor (Rattus norvegicus, UniProt P21451); experiment: Study of the affinity for the endothelin B receptor (125I endothelin displacement, rat cortex plus cerebellum membranes); format: binding; conditions: rat rear cortex plus cerebellum membranes, 25° C., 60 minutes
T2 construct: A membrane preparation is prepared from the rear cortex plus the cerebellum of a rat; from tissue; host or cells: rat rear cortex plus cerebellum (membrane preparation)
T2 sequence (P21451 27-442): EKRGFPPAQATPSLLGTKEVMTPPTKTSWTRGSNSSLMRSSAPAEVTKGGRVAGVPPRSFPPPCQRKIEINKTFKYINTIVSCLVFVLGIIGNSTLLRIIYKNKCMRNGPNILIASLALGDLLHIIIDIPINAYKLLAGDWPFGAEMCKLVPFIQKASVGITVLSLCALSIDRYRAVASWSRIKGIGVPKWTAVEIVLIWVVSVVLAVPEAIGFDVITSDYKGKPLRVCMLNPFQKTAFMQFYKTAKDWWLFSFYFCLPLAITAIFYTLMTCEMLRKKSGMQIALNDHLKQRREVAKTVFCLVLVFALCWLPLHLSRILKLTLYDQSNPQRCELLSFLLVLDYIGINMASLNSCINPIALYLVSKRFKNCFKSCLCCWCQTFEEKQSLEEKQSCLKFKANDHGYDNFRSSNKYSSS
Description: 2) Study of the Affinity for the Endothelin B Receptor
A membrane preparation is prepared from the rear cortex plus the cerebellum of a rat. The tissue is ground up in a POLYTRON in a 50 mM Tris buffer pH=7.4.
as §1, §2
as §3, with “3×10^-5 M” for “3×10 5M”
as §4, §5

[3] = tested on: endothelin (ET), isolated thoracic aorta of a rat; experiment: Antagonistic activity of endothelin on the isolated aorta of a rat; design: species or system Wistar male rats
Description: The thoracic aorta is removed from Wistar male rats (approximately 350 g) (IFFA CREDO France) anaesthetized with pentobarbital (60 mg/kg IP) then exsanguinated. The aorta is rapidly put into a physiological solution at ambient temperature. A 1 to 2 mm ring without endothelium is put in an isolated organ bath containing 5 ml of the following physiological solution (composition in mM NaCl: 118.4; KCl: 4.7; MgSO4, 7H2 O: 1.2; CaCl2, 2H2 O: 2.5; KH2 PO4 : 1.2; NaHCO3 : 25; glucose: 10.1) the medium is maintained at 37° C. and oxygenated with a mixture of oxygen (95%) carbon dioxide (5%). The initial pressure imposed is 2 g, the rings are left at rest for 60 to 90 minutes. The reference contraction is caused by the addition of 2 successive concentrations of 3 μM of noradrenalin, left in contact for 15 minutes, followed by 3 washings, the second response serves as the reference contraction. After return to the base line, incubation is carried out for 15 minutes with a concentration of the product to be tested or the solvent then cumulative concentrations of endothelin are added every 5 minutes (concentrations of […]). The inhibition induced by the product is calculated as a % of the reduction relative to the reactivity of the control curves over 2 points: concentration of 10 and 30 nM of endothelin.

[4] = 10 min, IV, 10 minutes before ET1 10 nmole/kg IV
[5] = 0.5 h, PO, 30 minutes before ET1 10 nmole/kg IV

Compound | pIC50 (Endothelin A receptor) | % inhibition of vasoconstriction (endothelin (ET1) [1]; dose 1.0 mg/kg, ET1 10 μg/kg) [%] | % inhibition of vasoconstriction (endothelin (ET1) [1]; dose 1.0 mg/kg, ET1 (3 μg/kg)) [%] | % inhibition of vasoconstriction (endothelin (ET1) [1]; dose 3.0 mg/kg, ET1 10 μg/kg) [%] | % inhibition of vasoconstriction (endothelin (ET1) [1]; dose 3.0 mg/kg, ET1 (3 μg/kg)) [%] | ED50 (endothelin (ET1) [2]; [4]) [mg/kg] | pIC50 (Endothelin B receptor) | % inhibition of contraction ([3]; antagonist 0.1 μM, ET 30 nM) [%] | % inhibition of contraction ([3]; antagonist 0.1 μM, ET 10 Nm) [%] | % inhibition of contraction ([3]; antagonist 1.0 μM, ET 30 nM) [%] | % inhibition of contraction ([3]; antagonist 1.0 μM, ET 10 Nm) [%] | ED50 (endothelin (ET1) [2]; [5]) [mg/kg] | % inhibition of vasoconstriction (endothelin (ET1) [1]; dose 0.3 mg/kg, ET1 10 μg/kg) [%] | % inhibition of vasoconstriction (endothelin (ET1) [1]; dose 0.3 mg/kg, ET1 (3 μg/kg)) [%] | % inhibition of vasoconstriction (endothelin (ET1) [1]; dose 10.0 mg/kg, ET1 10 μg/kg) [%] | % inhibition of vasoconstriction (endothelin (ET1) [1]; dose 10.0 mg/kg, ET1 (3 μg/kg)) [%]
CCCc1nc(SCCCCC(=O)O)c(C(=O)O)n1Cc1cc2c(cc1Cl)OCO2 [Example 8, 4-((4-carboxybutyl)thio)-1-((6-chloro-1,3-benzodioxol-5-yl)methyl)-2-(propyl)-1H-imidazole-5-carboxylic acid] | 8.72 | 22 | 40 | 47 | 57 | 3.5 | 6.22 | 97 | 97 | 96 | 95 |  |  |  |  | 
CCCc1nc(SC2CCC(=CC(=O)O)CC2)c(C(=O)O)n1Cc1cc2c(cc1Cl)OCO2 (centres unmarked) [Example 10, 4-((4-(carboxymethylene)cyclohexyl)thio)-1-((6-chloro 1,3-benzodioxol-5-yl)methyl)-2-propyl-1H-imidazole-5-carboxylic acid] | 8.92 | 39 | 59 | 61 | 58 | 3.3 | 6.68 |  |  |  |  | 3.2 |  |  |  | 
CCCc1nc(SCCCCCC(=O)O)c(C(=O)O)n1Cc1cc2c(cc1Cl)OCO2 [Example 6] | 8.92 | 33 | 42 | 37 | 49 | 3.9 | 6.53 | 99 | 96 | 98 | 96 |  |  |  |  | 
CCCc1nc(SC2CCC(CC(=O)O)CC2)c(C(=O)O)n1Cc1cc2c(cc1Cl)OCO2 (centres unmarked) [Example 2, 4-((4-(carboxymethyl)cyclohexyl)thio)-1-((6-chloro-1,3-benzodioxol-5-yl)methyl)-2-propyl-1H-imidazole-5-carboxylic acid] | 8.96 | 65 | 60 | 77 | 63 | 0.8 | 6.71 | 61 | 71 | 100 | 94 | 1.1 | 39 | 56 |  | 
CCCCc1nc(SCCCCCC(=O)O)c(C(=O)O)n1Cc1cc2c(cc1Cl)OCO2 [Example 12, 2-butyl 4-((5-carboxypentyl)thio) 1-((6-chloro 1,3-benzodioxol-5-yl)methyl)-1H-imidazole-5-carboxylic acid] | 8.96 |  |  |  |  |  |  | 65 | 88 | 98 | 98 |  |  |  | 35 | 30
O=C(O)CCCCCSc1nc(C2OCCO2)n(Cc2cc3c(cc2Cl)OCO3)c1C(=O)O [Example 3] |  | 53 | 52 | 71 | 64 | 5 |  |  |  |  |  | 24.1 |  |  |  | 
COCc1nc(SCCCCCC(=O)O)c(C(=O)O)n1Cc1cc2c(cc1Cl)OCO2 [Example 4] |  |  |  |  |  |  |  |  |  |  |  |  |  |  | 38 | 49
